The text below walks through data of patent US9309242B2, “Substituted pyrido[2,3-b]pyrazines as FGFR kinase inhibitors” (priority 2011, dated 2016).

Where a name gives a salt, the structure may show the parent alone. Read-outs that look alike come from different tables or passages of the source.

One series concerns the target FGFR1 (h) (Homo sapiens, UniProt P11362). Nature of the series: FGFR1 (enzymatic assay), TR-FRET. It counts as biochemical. As to conditions: read-out: FGFR 1 pIC50 (converted). In general terms: Time-resolved FRET reads energy transfer from a long-lived donor to a nearby acceptor.
The target of the next series is FGFR3 (h) (Homo sapiens, UniProt P22607). Nature of the series: FGFR3 (enzymatic assay), TR-FRET. In kind it is biochemical. The note with it: read-out: FGFR 3 pIC50 (converted). An excerpt:
Time-Resolved Fluorescence Resonance Energy Transfer (TR-FRET) signal (ex340 nm.

For another series, the target named is KDR (h) (Homo sapiens, UniProt P35968). The experiment in a line: KDR (VEGFR2) (enzymatic assay), TR-FRET. In kind it is biochemical. The note with it: read-out: VEGFR 2 (KDR) pIC50 (converted). The method, boiled down:
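Enzyme at 150 ng/ml was incubated 120 min at room temperature with 500 nM Btn-Flt3 peptide and 3 μM ATP in 50 mM HEPES pH 7.5, 6 mM MnCl2, 1 mM DTT, 0.1 mM Na3VO4, 0.01% Triton-X-100, 1% DMSO final. EDTA stop with Eu-anti-P-Tyr/SA-XL-665, 60 min; TR-FRET read in RFU.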

Series [1] has as its system Ba/F3-FGFR1-transfected cells. Nature of the series: Ba/F3-FGFR1 (plus IL3) cellular proliferation assay, counterscreen with 10 ng/ml murine IL3. In kind it is cell-based. The note with it: plus IL3 (10 ng/ml murine IL3, counterscreen); read-out: BAF3-FGFR1 (PLUS IL3) pIC50 (converted). The method, boiled down:
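Ba/F3-FGFR1 cells (20000/well) in RPMI-1640 with 10% FBS exposed to compound for 24 h at 37° C., 5% CO2, then Alamar Blue (resazurin) added for 4 h; fluorescence read at ex 540/em 590 nm. Counterscreen run identically with 10 ng/ml murine IL3.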
(In general: The purpose of a counterscreen is to sort out artefacts and off-target activity.)

The target in series [2] is Ba/F3-FGFR4-transfected cells (Homo sapiens, UniProt P22455). Nature of the series: Ba/F3-FGFR4 cellular proliferation assay, Alamar Blue. It counts as cell-based. The method, boiled down: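 Compounds in DMSO were dispensed before 20000 Ba/F3-FGFR4-transfected cells per well were added in phenol red free RPMI-1640 with 10% FBS, 2 mM L-Glutamine. After 24 hours at 37° C and 5% CO2, Alamar Blue was added for 4 hours and fluorescence read (ex. 540 nm, em. 590 nm).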
Ba/F3-FGFR4-transfected cells, sequence (P22455 whole entry, change not shown): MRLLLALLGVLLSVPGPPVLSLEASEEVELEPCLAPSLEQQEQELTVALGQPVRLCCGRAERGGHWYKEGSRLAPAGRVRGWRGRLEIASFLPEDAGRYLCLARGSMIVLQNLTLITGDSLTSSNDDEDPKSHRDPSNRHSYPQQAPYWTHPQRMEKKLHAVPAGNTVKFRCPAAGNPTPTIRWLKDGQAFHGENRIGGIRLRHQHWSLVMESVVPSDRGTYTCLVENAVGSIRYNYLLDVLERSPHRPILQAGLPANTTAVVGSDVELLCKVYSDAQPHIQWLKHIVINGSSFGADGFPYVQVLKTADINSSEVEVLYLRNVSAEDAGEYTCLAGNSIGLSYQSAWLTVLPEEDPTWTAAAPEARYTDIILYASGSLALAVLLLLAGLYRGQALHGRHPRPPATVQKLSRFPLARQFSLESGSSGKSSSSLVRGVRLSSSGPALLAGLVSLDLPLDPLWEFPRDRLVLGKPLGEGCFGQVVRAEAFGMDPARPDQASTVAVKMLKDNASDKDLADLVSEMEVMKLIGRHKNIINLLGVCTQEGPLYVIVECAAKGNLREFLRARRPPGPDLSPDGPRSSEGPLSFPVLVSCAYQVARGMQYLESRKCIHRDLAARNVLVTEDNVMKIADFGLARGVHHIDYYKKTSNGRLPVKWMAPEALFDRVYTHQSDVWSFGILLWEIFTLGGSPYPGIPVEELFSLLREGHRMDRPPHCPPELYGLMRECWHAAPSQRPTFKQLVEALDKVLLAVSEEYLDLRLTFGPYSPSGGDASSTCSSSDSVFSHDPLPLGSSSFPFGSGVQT
For orientation: Alamar Blue is a resazurin reagent that responds to reducing activity.

Where [3] appears, read: average values if tested multiple times.

KDR (h), sequence (P35968 20-1356): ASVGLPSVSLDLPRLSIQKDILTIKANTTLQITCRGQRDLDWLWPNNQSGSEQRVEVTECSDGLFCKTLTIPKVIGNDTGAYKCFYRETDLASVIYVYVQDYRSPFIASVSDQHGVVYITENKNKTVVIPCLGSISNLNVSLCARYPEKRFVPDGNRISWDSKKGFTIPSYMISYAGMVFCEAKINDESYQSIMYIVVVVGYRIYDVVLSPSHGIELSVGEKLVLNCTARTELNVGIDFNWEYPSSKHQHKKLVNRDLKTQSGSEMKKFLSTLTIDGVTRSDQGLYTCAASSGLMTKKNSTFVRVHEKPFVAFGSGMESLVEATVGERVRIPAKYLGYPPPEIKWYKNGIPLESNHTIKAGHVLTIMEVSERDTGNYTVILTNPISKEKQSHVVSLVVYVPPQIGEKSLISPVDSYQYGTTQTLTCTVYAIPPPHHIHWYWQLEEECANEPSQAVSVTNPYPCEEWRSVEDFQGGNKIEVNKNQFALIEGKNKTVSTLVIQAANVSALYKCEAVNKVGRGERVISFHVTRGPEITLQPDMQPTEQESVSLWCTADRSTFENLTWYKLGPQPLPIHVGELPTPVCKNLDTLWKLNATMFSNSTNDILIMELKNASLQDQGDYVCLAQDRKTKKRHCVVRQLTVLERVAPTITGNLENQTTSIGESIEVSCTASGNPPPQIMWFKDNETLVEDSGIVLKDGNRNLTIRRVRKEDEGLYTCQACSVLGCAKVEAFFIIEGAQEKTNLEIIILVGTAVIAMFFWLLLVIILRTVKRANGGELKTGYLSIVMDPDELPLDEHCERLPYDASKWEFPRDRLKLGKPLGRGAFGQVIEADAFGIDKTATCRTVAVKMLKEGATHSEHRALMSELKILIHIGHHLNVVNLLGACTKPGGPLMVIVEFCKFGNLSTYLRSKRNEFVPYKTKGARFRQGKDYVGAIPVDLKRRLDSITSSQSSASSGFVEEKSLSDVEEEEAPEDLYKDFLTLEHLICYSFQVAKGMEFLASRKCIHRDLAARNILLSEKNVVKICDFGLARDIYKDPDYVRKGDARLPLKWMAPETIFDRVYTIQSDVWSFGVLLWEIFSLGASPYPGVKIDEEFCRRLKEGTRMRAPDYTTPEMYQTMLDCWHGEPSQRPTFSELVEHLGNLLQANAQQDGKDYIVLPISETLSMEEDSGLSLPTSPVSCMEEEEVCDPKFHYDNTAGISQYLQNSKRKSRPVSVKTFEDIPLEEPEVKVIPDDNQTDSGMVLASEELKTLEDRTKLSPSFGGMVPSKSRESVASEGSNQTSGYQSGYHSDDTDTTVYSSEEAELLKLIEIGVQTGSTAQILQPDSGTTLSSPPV
FGFR3 (h), sequence (P22607 23-806): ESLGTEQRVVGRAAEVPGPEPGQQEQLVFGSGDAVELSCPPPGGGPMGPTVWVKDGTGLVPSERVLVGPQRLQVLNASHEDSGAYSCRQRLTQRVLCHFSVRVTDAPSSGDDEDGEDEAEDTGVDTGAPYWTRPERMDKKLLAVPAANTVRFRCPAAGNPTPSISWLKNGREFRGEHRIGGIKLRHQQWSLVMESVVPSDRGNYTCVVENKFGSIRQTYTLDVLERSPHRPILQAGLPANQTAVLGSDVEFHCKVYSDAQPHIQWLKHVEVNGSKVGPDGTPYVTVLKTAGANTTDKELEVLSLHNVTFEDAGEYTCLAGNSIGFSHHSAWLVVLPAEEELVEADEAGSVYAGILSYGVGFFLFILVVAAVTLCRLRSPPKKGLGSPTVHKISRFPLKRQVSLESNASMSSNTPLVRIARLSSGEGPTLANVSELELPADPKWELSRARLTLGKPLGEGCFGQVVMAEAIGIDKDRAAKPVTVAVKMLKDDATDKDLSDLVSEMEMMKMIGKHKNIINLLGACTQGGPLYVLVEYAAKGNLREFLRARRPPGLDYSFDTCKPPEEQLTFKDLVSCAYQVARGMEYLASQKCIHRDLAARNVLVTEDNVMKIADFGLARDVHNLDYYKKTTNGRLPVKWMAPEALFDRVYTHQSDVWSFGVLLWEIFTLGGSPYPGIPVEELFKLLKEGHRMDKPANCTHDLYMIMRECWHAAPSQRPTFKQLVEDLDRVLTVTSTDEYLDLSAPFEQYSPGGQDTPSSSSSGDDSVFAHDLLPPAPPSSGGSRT
FGFR1 (h), sequence (P11362 22-822): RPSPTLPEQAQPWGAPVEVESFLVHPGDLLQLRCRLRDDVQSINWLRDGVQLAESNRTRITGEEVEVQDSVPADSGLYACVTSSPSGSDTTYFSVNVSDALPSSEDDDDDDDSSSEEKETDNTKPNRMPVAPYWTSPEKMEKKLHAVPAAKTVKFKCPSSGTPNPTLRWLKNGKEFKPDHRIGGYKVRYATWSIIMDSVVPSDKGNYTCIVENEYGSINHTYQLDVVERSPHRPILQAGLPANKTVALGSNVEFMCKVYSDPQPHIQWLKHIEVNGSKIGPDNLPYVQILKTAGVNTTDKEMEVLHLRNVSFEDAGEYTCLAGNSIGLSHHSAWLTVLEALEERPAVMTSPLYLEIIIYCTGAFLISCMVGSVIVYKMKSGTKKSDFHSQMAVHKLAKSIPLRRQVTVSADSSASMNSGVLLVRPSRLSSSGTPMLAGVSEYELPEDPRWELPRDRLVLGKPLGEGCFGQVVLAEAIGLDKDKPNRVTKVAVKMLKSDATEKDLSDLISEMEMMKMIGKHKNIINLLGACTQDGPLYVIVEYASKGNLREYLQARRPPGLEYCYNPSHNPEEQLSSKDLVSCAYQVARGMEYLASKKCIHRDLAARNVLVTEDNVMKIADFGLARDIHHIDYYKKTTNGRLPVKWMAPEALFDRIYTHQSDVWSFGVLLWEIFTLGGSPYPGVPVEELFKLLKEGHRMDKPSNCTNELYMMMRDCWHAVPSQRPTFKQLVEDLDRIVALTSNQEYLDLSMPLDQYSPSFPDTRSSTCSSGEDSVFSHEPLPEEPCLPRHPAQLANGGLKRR

Consider `COc1cc(OC)cc(N(CC2CCC(=O)N2)c2ccc3ncc(-c4cnn(C)c4)nc3n2)c1` (centres unmarked) [Compound 49], for which the melting point came out at 182 °C. The IC50 at FGFR1 (h) (setting [3]) is 3.24 nM. The IC50 on FGFR3 (h) (setting [3]) is 1.62 nM. For the same compound, the IC50 at KDR (h) (setting [3]) is 60.3 nM. For the same compound, the IC50 in series [1] was over 10000 nM. For the same compound, in series [2], the “BAF3-FGFR4 pIC50” value is given as 6.24.
Take `COc1cc(OC)c(F)c(N(Cc2nn[nH]n2)c2ccc3ncc(-c4cnn(C)c4)nc3n2)c1` [Compound 140]: the melting point was found to be 149 °C. On FGFR1 (h), the IC50 is 11.7 nM. Also, the IC50 on FGFR3 (h) was 5.62 nM. Besides, on KDR (h), the IC50 is 56.2 nM. Further, the IC50 in series [1] was over 10000 nM. Also, the “BAF3-FGFR4 pIC50” value in series [2] is given as under 5.
In the case of `COc1cc(OC)c(F)c(N(c2ccc3ncc(-c4cnn(C)c4)nc3n2)C(CO)COC(C)C)c1` (single isomer, unassigned) [Compound 76], the melting point lay in the range of 137 to 138 °C. In addition, on FGFR1 (h) (setting [3]), the IC50 was 302 nM. At FGFR3 (h) (setting [3]), the IC50 was 105 nM. Moreover, the IC50 at KDR (h) (setting [3]) was over 1000 nM. Further, the IC50 in series [1] was over 10000 nM. Besides, the “BAF3-FGFR4 pIC50” value in series [2] came to 5.20.
For `COc1cc(OC)c(F)c(/N=c2\ccc3ncc(-c4cnn(C)c4)nc3n2CCN)c1F` [Compound 68], the IC50 at FGFR1 (h) (setting [3]) was 0.575 nM; on FGFR3 (h) (setting [3]) it was 1.62 nM; at KDR (h) (setting [3]) it was 15.8 nM; in series [1] it was over 10000 nM. For the same compound, in series [2], the “BAF3-FGFR4 pIC50” value came out at 7.14.
On the same counts, the results for `COc1ccc(F)c(N(Cc2ncc[nH]2)c2ccc3ncc(-c4cnn(C)c4)nc3n2)c1Cl` [Compound 73] are 2.4 nM, 2.82 nM, 63.1 nM, over 10000 nM and 6.50.
On the same counts, the results for `COc1cc(/N=c2\ccc3ncc(-c4cnn(C)c4)nc3n2Cc2ccnn2C)c(F)c(OC)c1` [Compound 114] are 0.933 nM, 0.724 nM, 4.9 nM, over 10000 nM and 7.14.
On the same counts, the results for `CNCCN(c1ccc2ncc(-c3cnn(C)c3)nc2n1)c1c(Cl)c(OC)cc(OC)c1Cl` [Compound 81] are 5.89 nM, 8.13 nM, 195 nM, over 10000 nM and 5.76.
As to `COc1cc(OC)c(F)c(N(Cc2cn[nH]c2)c2ccc3ncc(-c4cnn(C)c4)nc3n2)c1` [Compound 125], the IC50 at FGFR1 (h) is 0.851 nM; at FGFR3 (h), 0.724 nM; on KDR (h), 8.71 nM; in series [1], over 10000 nM. The “BAF3-FGFR4 pIC50” value in series [2] is recorded as about 7.15.
On the same counts, the results for `COc1cc(OC)c(F)c(N(Cc2nccn2C)c2ccc3ncc(-c4cnn(C)c4)nc3n2)c1` [Compound 131] are 2.14 nM, 2.95 nM, 19.1 nM, over 10000 nM and 6.62.
Turning to `COc1cc(OC)c(Cl)c(N(Cc2ncc[nH]2)c2ccc3ncc(-c4cnn(C)c4)nc3n2)c1` [Compound 42], the IC50 was 1.38 nM at FGFR1 (h) (setting [3]), 2.14 nM at FGFR3 (h) (setting [3]), 8.91 nM on KDR (h) (setting [3]) and over 10000 nM in series [1]. The “BAF3-FGFR4 pIC50” value in series [2] was determined as 7.35.
On the same counts, the results for `COc1cc(OC)c(F)c(N(Cc2c[nH]cn2)c2ccc3ncc(-c4cnn(C)c4)nc3n2)c1` [Compound 41] are 0.363 nM, 0.589 nM, 5.37 nM, over 10000 nM and 7.47.
Consider `CNCCN(c1ccc2ncc(-c3cnn(C)c3)nc2n1)c1c(F)c(O)cc(OC)c1F` [Compound 122], for which the IC50 is 2.82 nM on FGFR1 (h), 2.51 nM at FGFR3 (h), 50.1 nM on KDR (h) and over 10000 nM in series [1]. Moreover, the “BAF3-FGFR4 pIC50” value in series [2] is reported as 5.67.
For the compound `COc1cc(OC)c(F)c(N(CC2CCC(=O)N2)c2ccc3ncc(-c4cnn(C)c4)nc3n2)c1F` (centres unmarked) [Compound 192], the IC50 at FGFR1 (h) (setting [3]) is 1.15 nM; at FGFR3 (h) (setting [3]), 1.55 nM; at KDR (h) (setting [3]), 13.8 nM; in series [1] it was over 10000 nM. In series [2], the “BAF3-FGFR4 pIC50” value is recorded as 7.01.
On the same counts, the results for `COc1cc(OC)c(F)c(N(CC(O)COC(C)C)c2ccc3ncc(-c4cnn(C)c4)nc3n2)c1` (single isomer, unassigned) [Compound 75] are 2.14 nM, 1.95 nM, 23.4 nM, over 10000 nM and 7.33.
Take `COc1cc(OC)cc(N(CCCN2CCCC2=O)c2ccc3ncc(-c4cnn(C)c4)nc3n2)c1` [Compound 134]: the IC50 was 8.71 nM at FGFR1 (h), 3.8 nM on FGFR3 (h), 35.5 nM at KDR (h) and over 10000 nM in series [1]. Besides, the “BAF3-FGFR4 pIC50” value in series [2] stood at 5.99.
With `COc1cc(/N=c2\ccc3ncc(-c4cnn(C)c4)nc3n2CCCN2CCCC2=O)c(F)c(OC)c1` [Compound 119], the IC50 at FGFR1 (h) was 1.41 nM; on FGFR3 (h), 0.708 nM; at KDR (h), 6.17 nM; in series [1], over 3980 nM. In addition, in series [2], the “BAF3-FGFR4 pIC50” value was 7.28.
`COc1ccc(Cl)c(/N=c2\ccc3ncc(-c4cnn(C)c4)nc3n2CC2CCC(=O)N2)c1Cl` (centres unmarked) [Compound 92]: the IC50 was 61.7 nM at FGFR1 (h) (setting [3]), 46.8 nM at FGFR3 (h) (setting [3]), 309 nM at KDR (h) (setting [3]) and over 10000 nM in series [1]. In addition, the “BAF3-FGFR4 pIC50” value in series [2] is under 5.
On the same counts, the results for `COc1cc(OC)c(F)c(/N=c2\ccc3ncc(-c4cnn(C)c4)nc3n2CC(O)COC(C)C)c1F` (centres unmarked) [Compound 64] are 0.776 nM, 0.832 nM, 7.41 nM, over 10000 nM and 7.52.
On the same counts, the results for `COc1cc(OC)c(F)c(N(CC2CCC(=O)N2)c2ccc3ncc(-c4cnn(C)c4)nc3n2)c1` (centres unmarked) [Compound 46] are 1.82 nM, 1.51 nM, 41.7 nM, over 10000 nM and 6.76.
On the same counts, the results for `COc1cc(OC)c(F)c(N(CC(O)COC(C)C)c2ccc3ncc(-c4cnn(C)c4)nc3n2)c1F` (centres unmarked) [Compound 63] are 3.72 nM, 6.31 nM, 15.8 nM, over 10000 nM and 7.49.
For the compound `COc1cc(OC)cc(N(Cc2ncc[nH]2)c2ccc3ncc(-c4cnn(C)c4)nc3n2)c1` (racemic) [24-DL-tartrate salt], the IC50 is 0.355 nM on FGFR1 (h) (setting [3]), 0.741 nM on FGFR3 (h) (setting [3]), 11.7 nM on KDR (h) (setting [3]) and over 10000 nM in series [1]. Moreover, in series [2], the “BAF3-FGFR4 pIC50” value amounted to 7.62.
With `COc1cc(OC)c(F)c(N(CCCN2CCCC2=O)c2ccc3ncc(-c4cnn(C)c4)nc3n2)c1` [Compound 120], the IC50 is 4.17 nM at FGFR1 (h), 1.86 nM on FGFR3 (h), 19.1 nM at KDR (h) and over 10000 nM in series [1]. For the same compound, in series [2], the “BAF3-FGFR4 pIC50” value is on record as 6.84.

As a reminder, the melting point is the temperature of the solid-liquid transition.
